Experimental data: patent US20010031768A1, “Triazole antifungal agent” (SANKYO COMPANY LIMITED, priority 1995, published 2001)
Like-named read-outs stand apart in the source and are kept apart here.

Test system: Candida albicans
Assay: Survival of mice infected with Candida albicans after oral administration
Type: in vivo
Conditions: for responders at 20 mg/kg: po
Method: To mice (one group consisting of 10 mice), which were innoculated with 4 to 9×10^6 Candida albicans, were administered orally 20 mg/kg of preparations after 1, 4 and 24 hours, and thereafter the survival rate until 21 days after infection was examined.

[1] = 336 h, mice inoculated with 4 to 9×10^6 Candida albicans, 20 mg/kg orally after 1, 4 and 24 hours, 14 days after infection, read-out: Survival rate % 14 days
[2] = 504 h, mice inoculated with 4 to 9×10^6 Candida albicans, 20 mg/kg orally after 1, 4 and 24 hours, 21 days after infection, read-out: Survival rate % 21 days

Q: With CC(C)(SC1COC(/C=C/c2ccc(C(F)(F)F)cc2)OC1)C(O)(Cn1cncn1)c1ccc(C(F)(F)F)cc1 (racemic) [Example 30, (RS)-3-Methyl-1-(1 H-1,2,4-triazol-1-yl)-2-[4-(trifluoromethyl)phenyl]-3-[[trans-2-[(E)-2-[4-(trifluoromethyl)phenyl]vinyl]-1,3-dioxan-5-yl]thio]-2-butanol] as the molecule, how does the responders at 20 mg/kg [1] read?
A: Its responders at 20 mg/kg is 100%.

Q: What about the responders at 20 mg/kg [2] of the same molecule?
A: The responders at 20 mg/kg was 100%.

Q: Which results are given for C[C@@H](S[C@H]1CO[C@H](/C=C/c2ccc(C(F)(F)F)cc2)OC1)[C@](O)(Cn1cncn1)c1ccc(F)cc1F [Example 2, (2R,3R)-2-(2,4-Difluorophenyl)-3-[[trans-2-[(E)-2-[4-(trifluoromethyl)phenyl]vinyl]-1,3-dioxan-5-yl]thio]-1-(1 H-1,2,4-triazol-1-yl)-2-butanol]?
A: responders at 20 mg/kg [1]: 100%; responders at 20 mg/kg [2]: 100%

Q: Which responders at 20 mg/kg [1] does the source give for C[C@@H](S[C@H]1CO[C@H](/C=C/c2ccc(OC(F)(F)F)cc2)OC1)[C@](O)(Cn1cncn1)c1ccc(F)cc1F [Example 11, (2R,3R)-2-(2,4-Difluorophenyl)-1-(1 H-1,2,4-triazol-1-yl)-3-[[trans-2-[(E)-2-[4-(trifluoromethoxy)phenyl]vinyl]-1,3-dioxan-5-yl]thio]-2-butanol] here?
A: Its responders at 20 mg/kg is 100%.

Q: And the responders at 20 mg/kg [2]?
A: Its responders at 20 mg/kg is 100%.

Q: C[C@@H](S[C@H]1CO[C@H](/C=C/C=C/c2ccc(C(F)(F)F)cc2)OC1)[C@](O)(Cn1cncn1)c1ccc(F)cc1F [Example 15, (2R,3R)-2-(2,4-Difluorophenyl)-1-(1 H-1,2,4-triazol-1-yl) -3-[[trans-2-[(1 E,3 E)-4-[4-(trifluoromethyl)phenyl]-1,3-butadien-1-yl]-1,3-dioxan-5-yl]thio]-2-butanol] was tested. Which responders at 20 mg/kg [1] did it give?
A: The responders at 20 mg/kg was 100%.

Q: What about the responders at 20 mg/kg [2] of the same molecule?
A: Its responders at 20 mg/kg is 100%.

Q: Which responders at 20 mg/kg [1] does the source give for C[C@@H](S[C@H]1CO[C@H](/C=C/C=C/c2ccc(OCC(F)(F)C(F)F)cc2)OC1)[C@](O)(Cn1cncn1)c1ccc(F)cc1F [Example 16, (2R,3R)-2-(2,4-Difluorophenyl)-3-[[trans-2-[(1 E,3 E)-4-[4-(2,2,3,3-tetrafluoropropoxy)phenyl]-1,3-butadien-1-yl]-1,3-dioxan-5-yl]thio]-1-(1 H-1,2,4-triazol-1-yl)-2-butanol] here?
A: The responders at 20 mg/kg was 100%.

Q: What about the responders at 20 mg/kg [2] of the same molecule?
A: Its responders at 20 mg/kg is 100%.

Q: What does the source list for C[C@@H](S[C@H]1CO[C@H](/C=C/C=C(/c2ccc(Cl)cc2)C(F)(F)F)OC1)[C@](O)(Cn1cncn1)c1ccc(F)cc1F [Example 18, (2R,3R) -2-(2,4-Difluorophenyl)-3-[[trans-2-[(1 E,3 Z)-4-(4-chlorophenyl)-5,5,5-trifluoro-1,3-pentadien-1-yl]-1,3-dioxan-5-yl]thio]-1-(1 H-1,2,4-triazol-1-yl)-2-butanol]?
A: responders at 20 mg/kg [1]: 100%; responders at 20 mg/kg [2]: 100%

Q: What does the source list for C[C@@H](SC1CCN(C(=O)/C=C/c2ccc(OC(F)(F)F)cc2)CC1)[C@](O)(Cn1cncn1)c1ccc(F)cc1F [Example 21, (2R,3R)-2-(2,4-Difluorophenyl) -3-[[1-[(E)-4-(trifluoromethoxy)cinaamoyl]piperidin-4-yl]thio]-1-(1 H-1,2,4-triazol-1-yl)-2-butanol]?
A: Survival rate % 14 days (mice inoculated with 4 to 9×10^6 Candida albicans, 20 mg/kg orally after 1, 4 and 24 hours, 14 days after infection): 100%; Survival rate % 21 days (mice inoculated with 4 to 9×10^6 Candida albicans, 20 mg/kg orally after 1, 4 and 24 hours, 21 days after infection): 60%

Q: Which responders at 20 mg/kg [1] does the source give for C[C@@H](S[C@H]1CO[C@H](/C=C/C=C/c2ccc(SC(F)(F)F)cc2)OC1)[C@](O)(Cn1cncn1)c1ccc(F)cc1F [Example 32, (2R,3R)-2-(2,4-Difluorophenyl)-1-(1 H-1,2,4-triazol-1-yl)-3-[[trans-2-[(1E, 3E) -4-[4-(trifluoromethylthio)phenyl]-1,3-butadien-1-yl]-1,3-dioxan-5-yl]thio]-2-butanol] here?
A: The responders at 20 mg/kg was 100%.

Q: And the responders at 20 mg/kg [2]?
A: The responders at 20 mg/kg was 100%.

Q: C[C@@H](S[C@H]1CO[C@H](/C=C/C=C/c2ccc([S+]([O-])C(F)(F)F)cc2)OC1)[C@](O)(Cn1cncn1)c1ccc(F)cc1F (stereo partly drawn) [Example 35, (2R,3R)-2-(2,4-Difluorophenyl)-1-(1 H-1,2,4-triazol-1-yl)-3-[[trans-2-[(1E,3E)-4-[4-(trifluoromethylsulfinyl)phenyl]-1,3-butadien-1-yl]-1,3-dioxan-5-yl]thio]-2-butanol] was tested. Which responders at 20 mg/kg [1] did it give?
A: The responders at 20 mg/kg was 100%.

Q: What about the responders at 20 mg/kg [2] of the same molecule?
A: Its responders at 20 mg/kg is 100%.

Q: What does the source list for CC(SC1COC(/C=C/C=C/C=C/c2ccc(C(F)(F)F)cc2)OC1)C(O)(Cn1cncn1)c1ccc(F)cc1F [Example 37, (2R,3R)-2-(2,4-Difluorophenyl)-1-(1 H-1,2,4-triazol-1-yl)-3-[[trans-2-[(1E,3E,5E)-6-[4-(trifluoromethyl)phenyl]-1,3,5-hexatrien-1-yl]-1,3-dioxam-5-yl]thio]-2-butanol]?
A: responders at 20 mg/kg [1]: 100%; responders at 20 mg/kg [2]: 100%

Q: OC(Cn1cncn1)(Cn1cncn1)c1ccc(F)cc1F [Fluconazol, reference compound] was tested. Which responders at 20 mg/kg (Candida albicans, 336 h, read-out: Survival rate % 14 days) did it give?
A: The responders at 20 mg/kg was 70%.

Q: And the responders at 20 mg/kg (Candida albicans, 504 h, read-out: Survival rate % 21 days)?
A: Its responders at 20 mg/kg is 60%.
